The assay deals with GCN2 (Homo sapiens, UniProt Q9P2K8). In words: GCN2 enzymatic endpoint assay: phosphorylation of GFP-eIF2α measured by TR-FRET (Lanthascreen). It counts as biochemical. In a few lines: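 Endpoint GCN2 reaction with low ATP (2 μM) and 80 nM GFP-eIF2α, room temperature, 90 minutes. Detection mix with EDTA and Tb-labelled antibody; 520 nm/495 nm emission ratio reported.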
In general terms: In TR-FRET formats the signal depends on donor and acceptor labels being close together.

The mark [1] stands for this setting: tested as described in Example 77, compound and/or hydrochloride, dihydrochloride or trifluoroacetic acid salt, read-out: IC 50 Activity.
Setting [2] is: GCN2 biochemical IC50, 4 nM GCN2, 2 μM ATP, 80 nM GFP-eIF2α, 90 min RT, read-out: GCN2 activity.

This note sets out measurements from patent publication US11046699B2, “Pyrazolo-pyrimidin-amino-cycloalkyl compounds and their therapeutic uses” (RAPT THERAPEUTICS, INC., priority 2018, dated 2021).

pIC50: −log10 of the molar value. Like-named read-outs stand apart in the source and are kept apart here.

GCN2, sequence (Q9P2K8 whole entry): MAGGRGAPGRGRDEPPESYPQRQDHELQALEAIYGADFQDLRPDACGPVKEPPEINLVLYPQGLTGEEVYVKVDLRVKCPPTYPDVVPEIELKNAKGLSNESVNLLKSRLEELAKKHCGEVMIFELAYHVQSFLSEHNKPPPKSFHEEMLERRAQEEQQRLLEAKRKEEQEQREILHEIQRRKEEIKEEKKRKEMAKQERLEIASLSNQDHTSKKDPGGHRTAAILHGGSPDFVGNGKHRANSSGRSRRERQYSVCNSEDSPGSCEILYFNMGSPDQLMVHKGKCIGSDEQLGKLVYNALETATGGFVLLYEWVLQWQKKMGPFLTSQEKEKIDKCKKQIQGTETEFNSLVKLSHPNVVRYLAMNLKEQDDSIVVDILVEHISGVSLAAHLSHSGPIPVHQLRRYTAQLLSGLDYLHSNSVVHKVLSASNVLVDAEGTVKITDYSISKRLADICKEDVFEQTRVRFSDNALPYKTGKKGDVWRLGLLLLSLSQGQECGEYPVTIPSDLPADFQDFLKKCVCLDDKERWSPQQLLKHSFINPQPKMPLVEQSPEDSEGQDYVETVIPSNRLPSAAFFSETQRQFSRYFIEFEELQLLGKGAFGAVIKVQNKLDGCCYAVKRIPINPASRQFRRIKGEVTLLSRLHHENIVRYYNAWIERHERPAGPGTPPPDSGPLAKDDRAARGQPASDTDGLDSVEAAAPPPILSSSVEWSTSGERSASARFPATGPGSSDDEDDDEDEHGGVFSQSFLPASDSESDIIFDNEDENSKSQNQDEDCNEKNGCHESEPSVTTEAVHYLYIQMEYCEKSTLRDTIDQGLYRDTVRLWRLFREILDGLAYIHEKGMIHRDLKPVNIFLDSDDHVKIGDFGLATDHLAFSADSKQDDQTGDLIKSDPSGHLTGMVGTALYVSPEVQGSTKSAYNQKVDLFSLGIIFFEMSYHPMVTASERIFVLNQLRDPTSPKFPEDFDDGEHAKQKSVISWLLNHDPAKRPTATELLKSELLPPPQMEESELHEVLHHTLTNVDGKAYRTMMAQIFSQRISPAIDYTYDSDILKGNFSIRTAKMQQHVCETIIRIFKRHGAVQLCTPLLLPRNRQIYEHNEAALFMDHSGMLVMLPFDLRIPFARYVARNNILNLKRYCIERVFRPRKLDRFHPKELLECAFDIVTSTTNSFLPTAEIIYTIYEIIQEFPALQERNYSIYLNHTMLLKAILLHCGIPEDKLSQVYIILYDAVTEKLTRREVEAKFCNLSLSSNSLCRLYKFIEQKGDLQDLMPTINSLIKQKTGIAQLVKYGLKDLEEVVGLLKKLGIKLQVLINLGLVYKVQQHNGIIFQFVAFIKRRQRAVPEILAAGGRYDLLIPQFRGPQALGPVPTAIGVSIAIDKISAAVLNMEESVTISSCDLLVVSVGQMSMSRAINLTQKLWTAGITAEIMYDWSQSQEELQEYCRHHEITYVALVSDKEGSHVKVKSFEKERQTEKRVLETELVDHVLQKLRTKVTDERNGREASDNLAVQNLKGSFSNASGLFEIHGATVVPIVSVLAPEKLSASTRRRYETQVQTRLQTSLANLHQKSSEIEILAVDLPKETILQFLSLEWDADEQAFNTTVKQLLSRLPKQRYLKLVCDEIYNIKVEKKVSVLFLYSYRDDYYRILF

As for `CNC(=O)[C@]1(C)CC[C@@H](Nc2ncc3c(Br)nn(-c4cc(F)cc(CC#N)c4)c3n2)C1` [(1R,3R)-3-[[3-bromo-1-[3-(cyanomethyl)-5-fluoro-phenyl]pyrazolo[3,4-d]pyrimidin-6-yl]amino]-N,1-dimethyl-cyclopentane-carboxamide], the pIC50 under setting [1] was 6.70 to 7.60.

As to `Cc1nnc(-c2ccc(-n3nc(Br)c4cnc(N[C@@H]5CC[C@@]6(CCNC6=O)C5)nc43)cc2)s1`, the pIC50 under setting [1] was 6.70 to 7.60.

On to `CNC(=O)[C@]1(C)CC[C@@H](Nc2ncc3c(Br)nn(-c4cc(CNS(C)(=O)=O)c5ncccc5c4)c3n2)C1` [Example 33, (1R,3R)-3-((3-bromo-1-(8-(methylsulfonamidomethyl)quinolin-6-yl)-1H-pyrazolo[3,4-d]pyrimidin-6-yl)amino)-N,1-dimethylcyclopentane-1-carboxamide; 2,2,2-trifluoroacetic acid], for which the pIC50 under setting [2] was > 7.60.

As for `N#CCN1CCN(C(=O)[C@@H]2CC[C@@H](Nc3ncc4c(Br)nn(-c5cc(F)c6ncccc6c5)c4n3)C2)CC1` [2-[4-[(1R,3R)-3-[[3-bromo-1-(8-fluoro-6-quinolyl)pyrazolo[3,4-d]pyrimidin-6-yl]amino]cyclopentanecarbonyl]piperazin-1-yl]acetonitrile], the pIC50 under setting [1] was 6.70 to 7.60.

With `Cc1nnc(-c2ccc(-n3nc(Br)c4cnc(N[C@@H]5CC[C@@](C)(N(C)C)C5)nc43)cc2CCC#N)s1` [3-[5-[3-bromo-6-[[(1R,3R)-3-(dimethylamino)-3-methyl-cyclopentyl]amino]pyrazolo[3,4-d]pyrimidin-1-yl]-2-(5-methyl-1,3,4-thiadiazol-2-yl)phenyl]propanenitrile], under setting [1], the pIC50 was 6.70 to 7.60.

In the case of `O=C(NCCO)[C@@H]1CC[C@@H](Nc2ncc3c(Br)nn(-c4cc(F)c5ncccc5c4)c3n2)C1` [(1R,3R)-3-((3-bromo-1-(8-fluoroquinolin-6-yl)-1H-pyrazolo[3,4-d]pyrimidin-6-yl)amino)-N-(2-hydroxyethyl)cyclopentane-1-carboxamide], the pIC50 under setting [1] is 6.70 to 7.60.

Take `CNC(=O)C1(C)CC[C@@H](Nc2ncc3c(Br)nn(-c4cc(OC(F)(F)F)cc(C(C)O)c4)c3n2)C1` (stereo partly drawn) [(3R)-3-[[3-bromo-1-[3-(1-hydroxyethyl)-5-(trifluoromethoxy)phenyl]pyrazolo [3,4-d]pyrimidin-6-yl]amino]-N,1-dimethyl-cyclopentanecarboxamide]: under setting [1], the pIC50 was 6.70 to 7.60.

In the case of `CNC(=O)[C@]1(C)CC[C@@H](Nc2ncc3c(Br)nn(-c4cc(Cl)cc(C(C)O)c4)c3n2)C1` (stereo partly shown), under setting [1], the pIC50 is > 7.60.

For `CNC(=O)[C@]1(OC)CC[C@@H](Nc2ncc3c(Br)nn(-c4cc(F)c5ncccc5c4)c3n2)C1` [(1S,3R)-3-[[3-bromo-1-(8-fluoro-6-quinolyl)pyrazolo[3,4-d]pyrimidin-6-yl]amino]-1-methoxy-N-methyl-cyclopentanecarboxamide], the pIC50 under setting [1] was 6.70 to 7.60.

For `CCc1cc(-n2nc(Br)c3cnc(N[C@@H]4CC[C@@](C)(C(=O)NC)C4)nc32)ccc1-c1nnc(C)s1`, the pIC50 under setting [1] was 6.70 to 7.60.

Take `Cc1nnc(-c2ccc(-n3nc(Br)c4cnc(N[C@@H]5CC[C@@](C)(O)C5)nc43)cc2)s1` [Example 74, (1R,3R)-3-((3-bromo-1-(4-(5-methyl-1,3,4-thiadiazol-2-yl)phenyl)-1H-pyrazolo[3,4-d]pyrimidin-6-yl)amino)-1-methylcyclopentan-1-ol]: the pIC50 under setting [2] was 6.70 to 7.60.

For `CNC(=O)[C@@H]1CC[C@@H](Nc2ncc3c(Br)nn(-c4ccc(-c5ncco5)cc4)c3n2)C1` [Example 10, (1R,3R)-3-((3-bromo-1-(4-(oxazol-2-yl)phenyl)-1H-pyrazolo[3,4-d]pyrimidin-6-yl)amino)-N-methylcyclopentane-1-carboxamide], the pIC50 under setting [2] is 6.70 to 7.60.

With `CNC(=O)[C@]1(C)CC[C@@H](Nc2ncc3c(Br)nn(-c4ccc(-c5cncs5)cc4)c3n2)C1` [(1R,3R)-3-[[3-bromo-1-(4-thiazol-5-ylphenyl)pyrazolo[3,4-d]pyrimidin-6-yl]amino]-N,1-dimethyl-cyclopentane-carboxamide], the pIC50 under setting [1] was 6.70 to 7.60.
